pIC50: −log10 of the molar value.
Test system: S. cerevisiae tim23-1 mutant growth, luminescence
Assay: tim23-1 mutant yeast growth inhibitors, dose response, luminescence, uHTS hits (AID 493002);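 further: yeast grown roughly 22 hours at 25 °C before the luminescence read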

Compound | pIC50
O=C(Nc1ccc(F)c(Cl)c1)C1CC2CCC1C2 (centres undefined) | 4.67
Cc1cc2cc(CNC(=O)c3ccc(C)c([N+](=O)[O-])c3)ccc2[nH]1 | 5.04
CO/C(N)=C(\C#N)N=Cc1ccccc1Cl | 5.07
O=Cc1sc(Nc2ccccc2)nc1Cl | 4.93
Cc1ccc2nc(NC(=O)COC(=O)c3cccnc3)sc2c1 | 5.02
CCOC(=O)c1c(C)oc2c(F)c(F)c(F)c(F)c2c1=O | 4.88
Cc1ccc(C(=O)NC2=NCCS2)cc1Cl | 4.78
COc1cc(/C=C/[N+](=O)[O-])ccc1OC(=O)c1cc2ccccc2oc1=O | 5.40
CCn1ncc([N+](=O)[O-])c1C(=O)Nc1nc2cccc(C)c2s1 | 4.75
O=c1cc(C(Cl)(Cl)Cl)oc2c1ccc1ccccc12 | 5.66
NNC(=O)c1nc(-c2ccccc2)cc(-c2ccccc2)n1 | 5.18
O=c1/c(=C/c2cccc3ccccc23)sc2ncnn12 | 5.15
Cc1ccnc(NC(=O)c2ccc3c(c2)C(=O)N(CC(C)C)C3=O)c1 | 4.89
COc1cc2ccccc2cc1C(=O)Nc1ccc(C)cc1 | 4.90
O=C(NC(=O)c1ccccc1F)OCc1ccc(Cl)cc1Cl | 4.92
O=C(/C=C\Nc1cccc(F)c1)c1cccs1 | 5.14
O=C(CSc1cccs1)Nc1ccc2ccccc2c1 | 4.91
O=C(Nc1cc(-c2ccccc2)[nH]n1)c1ccccc1 | 5.38
COc1ccc(Nc2nc(N)c([N+](=O)[O-])c(NC3CCCCC3)n2)cc1 | 4.87
CCOC(=O)Nc1cccc(NC(=O)c2ccccc2F)c1 | 4.88
Cc1ccc2[nH]c3ccccc3c(=O)c2c1 | 4.87
COc1cc(NC(=O)c2cccs2)ccc1NC(=O)c1ccccc1Cl | 5.17

Compound | pIC50
COc1cccc(/C=N/NC(=O)c2cc(C34CC5CC(CC(C5)C3)C4)[nH]n2)c1 | 4.96
O=C1/C(=C/c2ccncc2)SC(=S)N1C1CCCCC1 | 5.24
Cn1nc(C(F)(F)F)c2cc(NC(=O)OCC(C)(C)C)sc21 | 4.55
O=C(Nc1ccc2nc(-c3ccc(Br)o3)[nH]c2c1)c1cccs1 | 5.87
Cc1ccc2nc(N3CCN(C=O)CC3)nc(-c3ccccc3)c2c1 | 4.92
O=C(COC(=O)CC1CCCC1)Nc1ccc(Cl)cc1 | 4.88
Cc1cccc(C)c1N1C(=O)CN(Cc2ccccc2)C1=S | 4.55
O=C(N/N=C/C(Br)=C/c1ccccc1)c1ccccc1F | 4.91
COc1ccc(NC(=O)Nc2cccc3cccnc23)cc1 | 4.40
COc1cc2c3c(c1)C(C)CC(C)(C)N3C(=O)C2=O (centres undefined) | 4.57
Cc1ccc(-c2nnc(NC3CCCC3)s2)cc1 | 4.58
COC(=O)c1ccc(-c2ccc(C(c3c(C)[nH][nH]c3=O)c3c(C)[nH][nH]c3=O)o2)cc1 | 4.95
COc1ccc(NC(=O)C#Cc2ccccc2)cc1 | 5.22
O=C(Nc1ccc(Cl)cc1)c1cccs1 | 4.96
O=C(c1cccnc1)C1Cc2ccccc2C1=O (centres undefined) | 5.00
Cc1nc2ccc(C(C(F)(F)F)(C(F)(F)F)C(F)(F)F)cc2[nH]1 | 5.30
c1ccc2[nH]c(-c3ccc4c(c3)OCO4)nc2c1 | 5.06
O=C(Nc1ccc2c(c1)OCCO2)c1cccc(Cl)c1 | 4.94
Fc1ccccc1-c1cc2cc3c(cc2cn1)OCO3 | 4.79
CC(=O)c1sc(-c2ccc(Cl)cc2)cc1N | 4.73
COc1ccc(C(=O)CC(=O)c2ccccc2O)cc1 | 4.82
O=C(CS(=O)(=O)c1ccccc1)Nc1nc(-c2ccc(F)cc2)cs1 | 4.85

Compound | pIC50
Cc1ccc(NC(=O)c2nc(S(=O)(=O)Cc3ccccc3C)ncc2Cl)cc1C | 5.43
O=Cc1cccnc1SCc1ccccc1 | 4.90
O=C(CN1C(=O)S/C(=C/c2ccncc2)C1=O)Nc1ccccc1 | 4.87
Cc1ccc(CS(=O)(=O)c2ncc(Cl)c(C(=O)Nc3ccc(OC(F)F)cc3)n2)cc1 | 5.73
CCc1sc(C(=O)Nc2nccs2)cc1C | 4.80
Nc1ncnc2c1ncn2[C@@H]1O[C@H](CO)C[C@H]1O | 4.85
Cc1ccc(O)c(N=Cc2cc(Cc3ccccc3)cc([N+](=O)[O-])c2O)c1 | 4.97
O=C(CCl)Nc1cccc(-c2cnc3ccccc3n2)c1 | 5.03
Cc1ccc2occ(/C=N/NC(=O)c3ccccc3Br)c(=O)c2c1 | 5.01
COc1ccc(OC)c(-c2csc(NC(=O)Cc3ccc(F)cc3)n2)c1 | 5.02
C=C1CCc2c([nH]c3ccc(OCC(C)C)cc23)C1=O | 5.48
CS(=O)(=O)c1ccc2nc(NC(=O)c3ccco3)sc2c1 | 4.71
CN1CCc2nc3sc(C(=O)C45CC6CC(CC(C6)C4)C5)c(N)c3cc2C1 | 5.61
CC(C)(C)N1C(=O)c2ccc(C(=O)Nc3nccs3)cc2C1=O | 4.69
c1ccc(-n2nc3c(ccc4cnnc43)[nH]2)cc1 | 4.61
CCC1CCc2sc(C(=O)N(C)CC(=O)Nc3ccc(OC)cc3)cc2C1 (centres undefined) | 4.71
Cc1ccn(-c2ccc(NC(=O)c3cccs3)cc2)n1 | 5.15
CCc1ccc(NC(=O)/C(C#N)=C/c2ccncc2)cc1 | 5.36
COc1ccc2c(=O)c3c(=O)n(Cc4ccco4)c(-c4ccccc4)nc3oc2c1 | 4.76
Nc1ccc2nc(SCc3cccc(F)c3)sc2c1 | 4.86

— PubChem BioAssay AID493002 (Sanford-Burnham Center for Chemical Genomics, 2010)
